This is an account of results in paper PMC9870305, “Efficacy of ultra-short, response-guided sofosbuvir and daclatasvir therapy for hepatitis C in a single-arm mechanistic pilot study” (eLife, 2023).

Read-outs that look alike come from different tables or passages of the source.

Data set [1] in a line: Plasma drug exposure, individual non-compartmental analysis (days 0 and 28 pooled). Set-up: AUC(0-t) / AUClast: concentration or dose not given beside the values. It is filed as in vivo, human. The following applies: median (5th-95th percentile); for AUC(0-t): human. As to the method: (§1) In addition, intensive drug level sampling was conducted in a subset of 40 participants, who were sequentially invited to join an ancillary PK study. In this subgroup, five samples were collected in each participant after the first dose of SOF/DCV and at day 28, according to one of two randomly assigned sampling schedules (A and B). In sampling schedule A, drug levels were measured at 0.5-, 2-, 4-, 6- and 24-hr post-dose; in sampling schedule B, drug levels were measured at 1-, 3-, 5-, 8- and 24-hr post-dose.
(§2) Drug quantification was performed using liquid chromatography-tandem mass spectrometer at Mahidol Oxford Tropical Medicine Research Unit, Bangkok. Two separate analytical assays were developed and validated to quantify SOF plus its metabolite GS-331007, and DCV, respectively. Full methodological details of the PK/PD analysis are provided in Appendix 1.
In the second analysis, data from days 0 and 28 were pooled for each individual. […] The mean value of drug concentrations was used if patients had two or more samples taken at the same time point. These derived individual drug exposures were used to evaluate the relationship between drug exposure and therapeutic outcome. It was assumed that the participants had no drug concentrations at time 0. In this analysis, the first measurement below LLOQ in a series of LLOQ samples was imputed as LLOQ/2 and the later measurements were ignored. In both approaches, SOF samples taken at ≥24 hr post-dose were excluded. […] In addition, outcome variables and the relationship between outcome variables and drug exposure were evaluated. Additional detail of the PK/PD analysis is provided in Appendix 1.
(§3) Maximum concentration (Cmax) and time to reach maximum concentration (tmax) were derived directly from the observed drug concentrations. The software’s automatic slope calculator was used to derive the elimination rate (λ) (adjusted R2 value with uniform weighting) and terminal elimination half-life (t1/2). The drug exposure measured as area under the concentration-time curve (AUC) was calculated for each drug using the trapezoidal method. Linear interpolation was used for acceding concentrations and log-linear interpolation for descending concentrations. For the individual analysis, the linear method was used for all measurements due to accumulation between the day 0 and day 28 measurements. Both the AUC to the last time point (AUClast, 8 hours for SOF and 24 hours for GS-331007 and DCV) and AUC to infinity (AUCinf) were calculated.
Two different sampling schedules were used to collect pharmacokinetic samples on day 0 and day 28, resulting in an overlapping sampling profile overall. Therefore, data collected within an individual on a specific day was not dense enough to justify a non-compartment analysis. […] Two separate pharmacokinetic analyses were carried out. A naïve-pooled analysis was performed separately conducted on day 0 and 28 data. […] Therefore, a second analysis was performed in which the data from day 0 and 28 were pooled for each individual. […] However, the individual analysis should still generate median exposure values for each patient, which can be linked with treatment outcome. Another drawback is that no pre-dose samples were collected.

Data set [2] can be described thus: Plasma pharmacokinetics, naïve pooled non-compartmental analysis (days 0 and 28). It is filed as in vivo, human. On the set-up: AUClast / AUC(0-t) / AUCINF / AUC(0-inf): concentration or dose not given beside the values. Particulars: for drug accumulation: between day 0 and 28; for AUC(0-t) / AUClast: to 8 hours for SOF, 24 hours for GS-331007 and DCV; for half-life: read-out: t1/2, terminal elimination half-life (converted); for AUC(0-inf): po; for AUC(0-inf) / AUCINF: extrapolated to infinity. Here is the method: as §1, §2
Intensive drug levels of SOF, its metabolite GS-331007, and DCV from the subset of 40 patients at days 0 and 28, together with any EOT samples at day 28, were analysed using non-compartmental analysis in PKanalix version 2020R1 ([Lixoft, 2022]). Two separate analyses were performed to characterise the pharmacokinetic properties of the study drugs.
In the first, naïve pooled analyses were performed separately on data from days 0 and 28 (not including EOT samples) to derive median pharmacokinetic parameters at each day. In these analyses, the median concentration at each protocol time was calculated. Individual concentration measurements below the LLOQ were set to LLOQ/2 when calculating the median values. It was assumed that the participants had no drug concentrations at time 0.
Sofosbuvir and GS-331007 were extracted from 100 µL of plasma using phospholipid removal in the 96-well plate format (Phree, 8E-S133-TGB, Phenomenex), followed by separation on a Gemini, 50 mm × 2.0 mm I.D. 5 µm, column (00B-4435-B0, Phenomenex). Quantification was performed using selected reaction monitoring for the transitions m/z 530.2–>243.2 (sofosbuvir), 536.2–>243.1 (isotope-labelled internal standard for sofosbuvir), 261.3–>113.1 (GS-331007), and 265.3–>113.1 (isotope-labelled internal standard for GS-331007).
The lower limit of quantification (LLOQ) was set to 1.95 ng/mL for sofosbuvir and 20.5 ng/mL for GS-331007. A total of 9 quality control samples (3×low, 3×mid and 3×high concentration) were analysed for each analyte within each batch of clinical samples (96-well plate), resulting in an accuracy of 2.81–2.93% RSE for sofosbuvir and 2.19–3.50% RSE for GS-331007.
DCV was extracted from 100 µL of plasma using supported liquid extraction in the 96-well plate format (ISOLUTE SLE +96 well plate, 820–0200 P01, Biotage), followed by separation on a Gemini, 50 mm × 2.0 mm I.D. 5 µm, column (00B-4435-B0, Phenomenex). Quantification was performed using selected reaction monitoring for the transitions m/z 739.5–>339.3 (DCV) and 747.5–>339.3 (isotope-labelled internal standard for DCV). The LLOQ was set to 1.64 ng/mL for DCV. A total of 9 quality control samples (3×low, 3×mid and 3×high concentration) were analysed within each batch of clinical samples (96-well plate), resulting in an accuracy of 2.46–2.62% RSE for DCV.
as §3, with “Both the AUC to the last time point (AUClast, 8 hours for SOF and 24 hours for GS-331007 and DCV) and AUC to infinity (AUCinf) were calculated.” left out

For data set [3] the following is noted: cited from earlier work; for dose proportionality of AUC: dose range of 200–1200 mg, ref Smolders et al., 2019.
Where [4] appears, read: individual analysis, all patients (n=37).

The Cmax is the maximum level reached in the sampled fluid or tissue. A word on the AUC(0-inf): it is the area under the concentration-time curve extrapolated to infinity. For the compound `COC(=O)N[C@H](C(=O)N1CCC[C@H]1c1nc(-c2ccc(-c3ccc(-c4c[nH]c([C@@H]5CCCN5C(=O)[C@@H](NC(=O)OC)C(C)C)n4)cc3)cc2)c[nH]1)C(C)C` [Daclatasvir, daclatasvir], the AUC(0-t) in data set [1] (plasma, oral, 4-week cures (n=15), read-out: Median AUClast) is 13000 ng·h/mL; in data set [1] (plasma, oral, 4-week failures (n=8), read-out: Median AUClast), 13200 ng·h/mL; in data set [1] (plasma, oral, 8-week cures (n=14), read-out: Median AUClast), 14200 ng·h/mL; in data set [1] (plasma, oral, individual analysis, all patients (n=37), read-out: AUClast), 9770 ng·h/mL; in data set [2] (human, plasma, oral, Day 0) it was 11400 ng·h/mL; in data set [2] (human, plasma, oral, Day 28), 12400 ng·h/mL. The drug accumulation entry in data set [2] is on record as “Drug accumulation was observed”. Besides, the Cmax in data set [2] (human, oral, Day 28, plasma, read-out: Cmax) is 1110 ng/mL; in data set [2] (human, Day 0, plasma, oral SOF 400 mg + DCV 60 mg, read-out: Cmax), 1170 ng/mL. The half-life in data set [2] (human, plasma, oral, Day 28) was 8.18 h; in data set [2] (human, plasma, oral, Day 0) it was 7.31 h. The tmax in data set [2] (human, plasma, oral, Day 0, read-out: tmax) was found to be 3 h. In addition, the area under the curve AUC(0-inf) in data set [2] (human, plasma, Day 0) is 12800 ng·h/mL; in data set [2] (human, plasma, Day 28) it was 14400 ng·h/mL.
In the case of `C[C@@]1(F)[C@H](O)[C@@H](CO)O[C@H]1n1ccc(=O)[nH]c1=O` [GS-331007], the “dose proportionality of AUC” value in data set [3] is reported as “near dose proportional”. In addition, the “Median AUClast” value in data set [1] (4-week cures (n=15)) is recorded as 11,700 (8420–14,100) h×ng/ml; in data set [1] (4-week failures (n=8)), 15,100 (9240–19,700) h×ng/ml; in data set [1] (8-week cures (n=14)), 14,000 (10,200–17,400) h×ng/ml. Also, the figures for the AUClast in data set [1] (setting [4]), in data set [2] (Day 0) and in data set [2] (Day 28) were 3,430 (2,200-4,720) h×ng/mL, 10,500 h×ng/mL and 14,600 h×ng/mL, respectively. The “t1/2, terminal elimination half-life” value in data set [2] (Day 0) is 9.20 h; in data set [2] (Day 28), 12.4 h. The tmax in data set [2] (Day 0) was determined as 3.00 h; in data set [2] (Day 28), 4.00 h. The Cmax in data set [2] (Day 0, plasma, oral SOF 400 mg + DCV 60 mg) is given as 988 ng/mL; in data set [2] (Day 28, plasma), 1,230 ng/mL. In addition, the AUCINF is recorded as 12,700 h×ng/mL in data set [2] (Day 0) and 20,400 h×ng/mL in data set [2] (Day 28). Further, the drug accumulation result in data set [2] is listed as “Drug accumulation was observed”.
As to `CC(C)OC(=O)[C@H](C)N[P@](=O)(OC[C@H]1O[C@@H](n2ccc(=O)[nH]c2=O)[C@](C)(F)[C@@H]1O)Oc1ccccc1` [Sofosbuvir, sofosbuvir], in data set [3], the “dose proportionality of AUC” value is listed as “near dose proportional”. Besides, the half-life result in data set [3] (ref de Kanter et al., 2014) is “less than 1 hr”; in data set [2] (human, in vivo, Day 0), 0.67 h; in data set [2] (human, in vivo, Day 28) it was 0.65 h. Moreover, the AUC(0-t) in data set [1] (in vivo, 4-week cures (n=15), read-out: Median AUClast) worked out at 2360 ng·h/mL; in data set [1] (in vivo, 4-week failures (n=8), read-out: Median AUClast) it was 2220 ng·h/mL; in data set [1] (in vivo, 8-week cures (n=14), read-out: Median AUClast), 2120 ng·h/mL; in data set [2] (human, in vivo, Day 0), 1550 ng·h/mL; in data set [2] (human, in vivo, Day 28) it was 1600 ng·h/mL. For the same compound, in data set [1] (setting [4]), the AUClast is listed as 1,140 (598-2,150) h×ng/mL. This compound registered a tmax in data set [2] (Day 0) of 1.00 h. Moreover, the AUC(0-inf) was 1550 ng·h/mL in data set [2] (human, in vivo, Day 0) and 1600 ng·h/mL in data set [2] (human, in vivo, Day 28). Also, the peak concentration (Cmax) in data set [2] (human, in vivo, Day 0, plasma, oral SOF 400 mg + DCV 60 mg, read-out: Cmax) was 1320 ng/mL; in data set [2] (human, in vivo, Day 28, plasma, read-out: Cmax), 1070 ng/mL.
